The source of these data is US20070243576A1, “Method to confirm immunosuppression in human patients by measuring lymphocyte activation” (priority 2001, published 2007).

In assay [1] the test system is T-lymphocytes in whole blood. The assay is classed as cell-based, human.
The test system of assay [2] is T-Lymphocytes (CD4 subset) in whole blood. It is filed as cell-based, human.
For assay [3] the test system is unchanged. The assay is described as follows: T-lymphocyte ATP response to PHA in normal and HIV infected donors (Example 4). To be noted: PHA 10 ug/mL, overnight incubation, anti-CD4 beads.
Assay [4] has as its system T lymphocytes (CD4 subset) in whole blood. Put plainly: Whole blood ATP response after stimulation with PHA, 2-24 hr (Example 2). The assay is classed as cell-based, human. The settings on record: PHA 1%. How it is done:
Aliquots of the blood were diluted 1:10 in RPMI 1640. Replicates received either no addition or the mitogen PHA at 1% final concentration. Samples were incubated at 37° C. […] The cells and beads were placed next to a permanent magnet positioned such that the magnetic field was in a direction perpendicular to gravity. […] Assay Reagent (luciferin/luciferase) was added to the samples ATP production was determined as described above. […] The response is clearly evident at 4 hours of incubation, peaks at 8 hours, and remains high at 24 hrs post stimulation.

Turning to Tetanus Toxoid, the “increase in ATP over background” value in assay [1] is on record as “increase in ATP over background”; in assay [2], “significant”. Also, in assay [2], the “time within which activation of the T lymphocyte subset is detected” value is at most 5 h.

For Phytohemagglutinin [PHA], in assay [3], the “ATP response to PHA, HIV+ population versus normal donors” value is “lower than the normal donor population”. Further, in assay [2], the “increase in ATP over background” value was “statistically significant increase” and the “time within which activation of the T lymphocyte subset is detected” value was at most 0.5 h. The “increase in ATP over background” value in assay [4] (all time points (2, 4, 6, 8, 24 hr)) is given as “increase in ATP over background”. Further, the “time of peak ATP response” value in assay [4] (time course 2-24 hr) was 8 h.
